Experimental data published in PubChem BioAssay (NCI).
Where “and” joins values, the source holds several entries; their conditions need not be identical. Equal values may be shown once.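 Briefly, cells in 96-well plates were exposed to five compound concentrations for 48 h, and endpoints were estimated by linear interpolation. Abbreviation: GI50, concentration required for 50% inhibition of growth. TGI is the concentration that stops growth completely.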

How the values were obtained:
Test in all cases: DTP human tumour cell line panel, 48 h
786-0 renal = test system: 786-0 renal
A498 renal = test system: A498 renal
IGROV1 ovarian = test system: IGROV1 ovarian
MOLT-4 leukemia = test system: MOLT-4 leukemia
NCI-H23 lung = test system: NCI-H23 lung
OVCAR-4 ovarian = test system: OVCAR-4 ovarian
OVCAR-5 ovarian = test system: OVCAR-5 ovarian
OVCAR-8 ovarian = test system: OVCAR-8 ovarian
SF-295 CNS = test system: SF-295 CNS
SN12C renal = test system: SN12C renal

Structure (SMILES)	GI50 (786-0 renal)	TGI (786-0 renal)	GI50 (A498 renal)	TGI (A498 renal)	GI50 (IGROV1 ovarian)	TGI (IGROV1 ovarian)	GI50 (MOLT-4 leukemia)	TGI (MOLT-4 leukemia)	GI50 (NCI-H23 lung)	TGI (NCI-H23 lung)	GI50 (OVCAR-4 ovarian)	TGI (OVCAR-4 ovarian)	GI50 (OVCAR-5 ovarian)	TGI (OVCAR-5 ovarian)	GI50 (OVCAR-8 ovarian)	TGI (OVCAR-8 ovarian)	GI50 (SF-295 CNS)	TGI (SF-295 CNS)	GI50 (SN12C renal)	TGI (SN12C renal)
CC(=O)[CH-]C(C)=O.[CH2-]C.[CH2-]C.[Tl+3]	> 100 µM	> 100 µM	> 100 µM	> 100 µM	> 100 µM	> 100 µM	> 100 µM	> 100 µM	> 100 µM	> 100 µM	> 100 µM	> 100 µM	> 100 µM	> 100 µM	> 100 µM	> 100 µM	> 100 µM	> 100 µM	> 100 µM	> 100 µM
Cc1ncc(C(=O)Nc2ccc(CN3CCN(C)CC3)c(C(F)(F)F)c2)cc1C#Cc1cnc(NC2CC2)c2ncccc12	0.65 µM	1.16 µM	1.78 µM	5.56 µM	0.709 µM	1.51 µM	0.519 µM	1.17 µM	0.646 µM	1.36 µM	1.49 µM	3.27 µM	0.668 µM	1.32 µM	0.708 µM	1.54 µM	0.747 µM	1.68 µM	1.67 µM	3.32 µM
COc1ccccc1-c1cc(=O)c2ccc(C)nc2[nH]1	> 100 µM	> 100 µM	–	> 100 µM	–	> 100 µM	–	> 100 µM	–	> 100 µM	–	> 100 µM	–	> 100 µM	–	> 100 µM	> 100 µM	> 100 µM	–	> 100 µM
CC1(C)OC2COC3(CNO)OC(C)(C)OC3C2O1 (stereo not drawn)	–	> 100 µM	–	> 100 µM	–	> 100 µM	–	> 100 µM	–	> 100 µM	–	> 100 µM	–	> 100 µM	–	> 100 µM	–	> 100 µM	–	> 100 µM
O=C1C(SCCO)=C(SCCO)C(=O)c2ccccc21	–	3.91 µM	–	1.35 µM	–	2.78 µM	–	0.481 µM	–	2.44 µM	–	0.671 µM	–	2.81 µM	–	1.22 µM	–	2.97 µM	–	3.06 µM
C=CCO/N=C/c1cc(NC(=S)c2ccoc2C)ccc1Cl	–	> 100 µM	–	58.6 µM	–	32.2 µM	–	29.4 µM	–	26.7 µM	–	20.6 µM	–	33.8 µM	–	33.9 µM	–	26.6 µM	–	30.3 µM
C[n+]1c2ccccc2cc2c(CNC(CCCN=C(N)N)C(=O)O)cccc21 (stereo not drawn)	0.443 µM	2.19 µM and 1.59 µM	–	8.7 µM	4.09 µM	19.1 µM	–	0.852 µM	4.19 µM	18.4 µM	–	23.9 µM	14.4 µM	27.4 µM	2.42 µM	5.11 µM and 7.74 µM	5.03 µM	17.5 µM	–	2.18 µM and 2.99 µM
COCCOCCOCc1n(Cc2ccc3ccccc3n2)c2ccccc2[n+]1Cc1ccc2ccccc2c1	1.53 µM	3.04 µM	0.627 µM	2.83 µM	0.351 µM	1.66 µM	0.47 µM	2.52 µM	0.386 µM	10.3 µM	0.385 µM	7.42 µM	0.557 µM	7.43 µM	0.498 µM	1.92 µM	0.804 µM	2.58 µM	0.362 µM	1.41 µM
CCCCCCCCCCCC[n+]1ccccc1 (tested in a mixture with another compound)	1.95 µM	5.92 µM	1.84 µM	7.25 µM	0.519 µM	2.28 µM	1.34 µM	4.78 µM	0.655 µM	5.48 µM	0.683 µM	12.4 µM	1.03 µM	5.85 µM	0.777 µM	11.3 µM	0.712 µM	2.52 µM	1.19 µM	3.43 µM
CCCCCCCCCCCCCC(=O)OCC1OC(=O)CC1O (stereo not drawn)	–	> 100 µM	–	> 100 µM	–	> 100 µM	–	> 100 µM	–	> 100 µM	–	> 100 µM	–	> 100 µM	–	> 100 µM	–	> 100 µM	–	> 100 µM
Cc1cc(Nc2nc(SCc3ccc(C(=O)Nc4ccc(F)cc4N)cc3)nn3cccc23)n[nH]1	0.466 µM	22 µM	0.623 µM	5.61 µM	0.558 µM	62 µM	0.508 µM	13.5 µM	0.603 µM	47.4 µM	1.66 µM	77.7 µM	0.657 µM	> 100 µM	0.483 µM	88 µM	0.354 µM	25.9 µM	1.25 µM	> 100 µM
CC1CCCc2c1nn(C(=O)/C=C(\N)c1ccccc1)c2N (stereo not drawn)	16.2 µM	> 100 µM	9.64 µM	90.5 µM	12.5 µM	> 100 µM	5.16 µM	84.9 µM	5.5 µM	92.9 µM	12.8 µM	> 100 µM	31 µM	> 100 µM	8.5 µM	> 100 µM	30.6 µM	> 100 µM	8.13 µM	> 100 µM
Cc1ccc2c(c1)Sc1ccc(N=NN(C)C)cc1N2C	–	> 100 µM	–	> 100 µM	–	> 100 µM	–	> 100 µM	–	> 100 µM	–	> 100 µM	–	> 100 µM	–	> 100 µM	–	> 100 µM	–	> 100 µM
CC(=O)[O-].CC(=O)[O-].CC(=O)[O-].CC(=O)[O-].[Mo+2].[Mo+2]	> 100 µM	> 100 µM	> 100 µM	> 100 µM	> 100 µM	> 100 µM	> 100 µM	> 100 µM	> 100 µM	> 100 µM	> 100 µM	> 100 µM	> 100 µM	> 100 µM	> 100 µM	> 100 µM	> 100 µM	> 100 µM	> 100 µM	> 100 µM
O=C/C(=C(/Cl)c1ccc(O)cc1)c1ccccc1	–	> 66.3 µM	–	> 100 µM	–	66.6 µM	–	> 69.4 µM	–	55.1 µM	–	> 54 µM	–	> 100 µM	–	> 92.4 µM	–	> 72.2 µM	–	> 61.3 µM
NC(N)=NS(=O)(=O)c1ccc(NC(=O)c2cccc3c(Nc4ccc(S(N)(=O)=O)cc4)c4ccccc4nc23)cc1	–	> 100 µM	–	> 100 µM	–	> 100 µM	–	> 100 µM	–	> 100 µM	–	> 100 µM	–	> 100 µM	–	> 100 µM	–	> 100 µM	–	> 100 µM
